Test results published in paper PMC11249646, “Small-Molecule Disruptors of the Interaction between Calcium- and Integrin-Binding Protein 1 and Integrin αIIbβ3 as Novel Antiplatelet Agents” (ACS Pharmacology & Translational Science, 2024).
Where two headings read alike, the source gives them in different places.

Legend:
[1] = In vitro ADME: solubility; type: physicochemical; conditions: read-out: Solubility
[2] = target: T1, GST-CIB1 : F-scrambled peptide (Homo sapiens, UniProt Q99828); experiment: FP scrambled-peptide counter screen, 1536-well format; type: binding; conditions: scrambled-peptide counterscreen
T1 construct: made in house; host or cells: BL-21 plus RIL cells (E. coli)
T1 sequence (Q99828 1-191): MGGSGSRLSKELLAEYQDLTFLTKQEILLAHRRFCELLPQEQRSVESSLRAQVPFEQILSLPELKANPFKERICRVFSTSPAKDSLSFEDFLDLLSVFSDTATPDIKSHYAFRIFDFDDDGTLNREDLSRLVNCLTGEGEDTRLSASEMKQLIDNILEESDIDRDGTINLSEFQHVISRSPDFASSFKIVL

washed human platelets = experiment: Human platelet aggregation assay (thrombin-induced); type: cell-based
How it was run: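 Washed platelets (2 × 10^8/mL) from citrated blood of healthy volunteers, pretreated 30 min at 37 °C with compound or DMSO vehicle, then activated with 0.03 U/mL thrombin. Aggregation traces recorded by aggregometry; P-selectin (CD62P) exposure measured by flow cytometry.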

[3] = target: T2, GST-CIB1:F-αIIb interaction (Homo sapiens, UniProt Q99828); experiment: Gel-based (in-gel) binding assay; conditions: 1 μM GST-CIB1, 400 nM F-αIIb; 60 μM, 1:2, 4-points
T2 construct: made in house; host or cells: BL-21 plus RIL cells (E. coli)
T2 sequence (Q99828 1-191): T1 sequence (Q99828 1-191)

[4] = test system: P-selectin (CD62P) exposure on human platelets; experiment: Thrombin-induced P-selectin (CD62P) exposure, flow cytometry; type: cell-based; conditions: various doses
Experimental: […]. These findings indicate that through the utilization of this FP assay, we successfully identified inhibitors of platelet function, which may warrant further assessment for their potential as antiplatelet agents.
Figure 6 Effect of compounds on human platelet activation. Representative platelet aggregation tracings of washed human platelet suspensions pretreated for 30 min at 37 °C with vehicle (DMSO) or compounds at indicated concentrations followed by activation with thrombin (0.03–0.1 U/mL). Panel (A): NCGC00071855. Panel (B–D): NCGC00351170. Panel (E): CD62P exposure was in the presence of NCGC00351170. Data represents mean ± SEM, n = 4 individual experiments; ns = non significant *P < 0.05, ***P < 0.001, ****P < 0.0001.
Whole blood was drawn by venipuncture from healthy adult volunteers (of both gender and race) with informed consent. Approval was obtained from the institutional review boards of Thomas Jefferson University, according to the Declaration of Helsinki. Blood was collected in acidified citrate dextrose as an anticoagulant. Platelet-rich plasma (PRP) and washed platelets were prepared, as previously described.[44] Platelet aggregation was performed using washed platelet suspensions containing 2 × 10^8 platelets/mL using a Chrono-Log Lumi-Aggregometer (Chrono-Log), as described previously.[11] Aggregation traces were recorded by using Aggrolink software (Chrono-Log). […]

[5] = target: T3, GST-CIB1 : F-αIIb peptide (Homo sapiens, UniProt Q99828); experiment: FP assay in the presence of glutathione (GSH), thiol reactivity; type: binding
T3 construct: made in house; host or cells: BL-21 plus RIL cells (E. coli)
T3 sequence (Q99828 1-191): T1 sequence (Q99828 1-191)

[6] = target: T4, CIB1 and αIIb interaction (CIB1-GST : F-αIIb peptide) (Homo sapiens, UniProt Q99828); experiment: FP assay, 1536-well qHTS format (primary and confirmatory screen); type: binding
T4 construct: made in house; host or cells: BL-21 plus RIL cells (E. coli)
T4 sequence (Q99828 1-191): T1 sequence (Q99828 1-191)

## COc1ccccc1C(=O)c1no[n+]([O-])c1C(=O)c1ccccc1OC.O=C(O)C(F)(F)F [NCGC00351170-01]
[1]
  solubility: > 52 µg/mL
[2]
  COUNTERSCREEN Efficacy (%): -14%
[2]; YES/NO call
  COUNTERSCREEN Confirm?: YES
[2]; qHTS curve class
  COUNTERSCREEN Curve Class: 4
Washed human platelets; 10 μM compound
  Platelet Aggregation Result: Active
Washed human platelets; Homo sapiens, Platelet, single concentration of 10 μM (n = 3), thrombin
  inhibition at 10 µM: 94%
Washed human platelets; dose response, thrombin
  lowest concentration required to achieve >95% inhibition of platelet aggregation: 2 µM
Washed human platelets; platelet aggregation inhibition at 10 µM
  Thrombin Assay 10 µM (%): 94%
[3]
  Active in Gel Assay?: YES
[4]
  P-selectin (CD62P) exposure: dose-dependent inhibition of platelet activation
[5]; FP assay in the presence of glutathione (GSH +), read-out: GSH (+) Assay IC50
  IC50: 1.2 µM
[5]; FP assay without glutathione (GSH -), read-out: GSH (-) Assay IC50
  IC50: 4 µM
[5]; ratio of GSH (+) IC50 to GSH (-) IC50
  GSH/CIB1 IC50 ratio: 0.3
[5]; thiol reactivity call: No change / Active
  GSH Assay Result: No change
[6]; confirmatory screen, YES/NO call
  CONFIRMATORY SCREEN Confirm?: YES
[6]; confirmatory screen, qHTS curve class, negative sign = inhibitory curve
  CONFIRMATORY SCREEN Curve Class: -1.2
[6]; confirmatory screen, negative = inhibition
  CONFIRMATORY SCREEN Efficacy (%): -45%
[6]; confirmatory screen, read-out: CONFIRMATORY SCREEN IC50
  IC50: 5.6 µM
[6]; qHTS FP screen hits, Table S2, negative = inhibition
  Efficacy (%): -37%
[6]; qHTS FP screen hits, Table S2, one class per curve where COUNT > 1, negative sign = inhibitory curve
  Curve Class: -1.2
[6]; qHTS FP screen hits, Table S2, read-out: IC50
  IC50: 5 µM
